In patent publication US20260356860A1, “2-SUBSTITUTED 3,4A,5,7,8,8A-HEXAHYDRO-4H-THIOPYRANO[4,3-DJPYRIMIDIN-4-ONES FOR WOUND TREATMENT” (priority 2022, published 2026):
Values joined by “and” are separate entries in the source; they are usually repeats but may differ in a detail not shown here. Equal entries are not always repeated.

Legend:
[1] = test system: HEK293 SuperTOPFlash reporter cells, Wnt promoter; assay: HEK CELL Wnt Assay (luciferase reporter); format: cell-based; details: serial dilutions, with or without 50 ng/mL Wnt3a; 18 h
Procedure, shortened: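 Reporter cells were seeded 24 h before dosing with serial dilutions ([…] to 1 nM), with or without 50 ng/mL Wnt3a, and incubated 18 h. Untreated cells served as negative control, with luciferase as read-out.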

[2] = test system: HEK293 SuperTOPFlash reporter cells, Wnt promoter; assay: Wnt inhibition in HEK293 SuperTOPFlash reporter cells, DMSO vs aqueous GO-HA (FIGS. 1-3); format: cell-based
Description: In order to determine the effect of the compounds of Formula (I) on Wnt inhibition, an invitro assay using HEK293 SuperTOPFlash reporter cells, with the Wnt promoter driving a luciferase reporter gene, were utilized. 40,000 HEK293 SuperTOPFlash reporter cells were seeded, per well, in a 48 well plate for 24 hours, prior to administration of serial dilutions of the compounds of Formula (I) to individual wells. Serial dilutions ranging from […] to 1 nM of compounds of Formula (I) were added with or without 50 ng/mL Wnt3α (Time Biosciences) and allowed to incubate with the reporter cells for 18 hours. Reporter cells with no treatment were used as negative control.

new porcine skin [3] = assay: Strain (tensile strength) of healed wound; format: in vivo; details: day 21; for Strain (tensile strength) / Strain (tensile strength), Mean: topical
Description: (§1) Additional tests were performed including elasticity (Table 12); max force (Table 13); tensile strength (strain) (Table 14); energy peak (Table 15); rete-ridge formation; and collagen organization (plane polarized light) (FIG. 24) of the healed wound sites, described as follows.
(§2) A is saline (control), B is serum formulation (vehicle), C is GO-HA (vehicle), D is Compound 1; E is Compound 1+GO-HA; F is Compound 8; G is Compound 8+GO-HA; H is Compound 10; and J is Compound 10+GO-HA.
Strain (tensile strength) (N/mm^2) is the force required to pull/stretch a material to a breaking point. A 20% improvement over saline considered good. All compounds of Formula (I) tested with or without GO-HA ranged from 36% to 142% improvement in tensile strength compared to the saline control.

closed excisional wounds = assay: Closed excisional wound healing study (cosmesis); format: in vivo, Yucatan Miniature Swine; details: of 8 wounds
Description: The test composition in the closed excisional wound and burn studies for compounds without GO-HA (no GO-HA added) was a mixture with an overall concentration of 0.20 to 0.25 mg/mL of the respective compound in serum formulation as follows: compound (4 mg), butylene glycol (0.80 mL), polysorbate 20 (0.40 mL), ultra pure water (18 mL), and hydroxypropyl cellulose (0.12 g).
The test composition in the closed excisional wound and burn studies for compounds with GO-HA (Compound+GO-HA) was a mixture with an overall concentration of 1.0 mg/mL of the respective compound and 0.5 mg/mL of GO-HA in serum formulation as follows: compound (18 mg), PEG 400 (0.8 mL), GO-HA (9 mg), ultra pure water (18 mL), and hydroxypropyl cellulose (0.12 g).
The frequency of wound creation was once on dosing phase day 1. The frequency of dose administration was once on dosing phase days 1, 3, 5, 7, 9, 11, 13, 15, 17, 19, and 21. Each animal had twelve 5 cm×0.5 cm full thickness fusiform(spindle shaped) wound sites, spaced at least 3 cm apart to the appropriate depth and in a staggered pattern to reduce central cross-sectional wound tension.
Once […] was obtained, each wound was sutured closed using non-absorbable suture, the simple interrupted closure technique is shown in FIG. 13. Each wound had 5 simple interrupted sutures with a 0.5 to 1 cm interval between sutures.
Compounds of Formula (I) and controls were applied directly to the wound site in a generous layer evenly over the sutured wound using a sterile applicator as needed. After application, each wound site was covered with suitable sterile dressing materials.
Dressings were changed every dosing phase day at day 3, 5, 7, 9, 11, 13, 15, 17, 19, and 21, and sutures were removed on dosing phase day 15. After dose administration on each dosing day, the wounds were covered with dressings as described above.
All animals were scheduled to be terminated on dosing phase day 22. At termination, the entire wound site (dose site) was collected separately for each site and included at least 0.5 cm margin skin and a depth below the wound bed. […]

new porcine skin [4] = assay: Elasticity of healed wound; format: in vivo; details: day 21; for Elasticity, Mean / Elasticity, individual values: topical
Description: as §1, §2
Elasticity (N/mm) is the ability of a material to return to its original shape after stress has been removed. All compounds of Formula (I) tested with or without GO-HA ranged from 33% to 99% improvement in elasticity compared to the saline control.

new porcine skin [5] = assay: Energy peak of healed wound; format: in vivo; details: day 21; for Energy Peak / Energy Peak, Mean: topical
Description: as §1, §2
Energy Peak (N*mm) is the maximum force applied to a material over time. All compounds of Formula (I) tested with or without GO-HA ranged from 5% to 41% improvement in energy peak compared to the saline control. […] The vehicle, GO-HA, provided a 61% improvement in energy peak over the saline control.

SMILES	IC50 [1]	IC50 [2]	Strain (tensile strength) (new porcine skin [3]; individual value 1)	Strain (tensile strength) (new porcine skin [3]; individual value 2)	Strain (tensile strength) (new porcine skin [3]; individual value 3)	Strain (tensile strength) (new porcine skin [3]; individual value 4)	Strain (tensile strength), Mean (new porcine skin [3])	wounds with improved cosmesis / visible appearance than the control (closed excisional wounds)	Elasticity, Mean (new porcine skin [4])	Elasticity, individual values (new porcine skin [4])	Energy Peak (new porcine skin [5]; individual value 1)	Energy Peak (new porcine skin [5]; individual value 2)	Energy Peak (new porcine skin [5]; individual value 3)	Energy Peak (new porcine skin [5]; individual value 4)	Energy Peak, Mean (new porcine skin [5])	Strain (tensile strength) (new porcine skin [3]; individual value 5)	improvement in energy peak compared to the saline control (new porcine skin [5])	Energy Peak (new porcine skin [5]; individual value 5)	improvement in tensile strength (strain) compared to the saline control (new porcine skin [3])	improvement in elasticity compared to the saline control (new porcine skin [4])
O=c1[nH]c(-c2ccc(B(O)O)cc2)nc2c1CSCC2 [Compound 1, (4-(4-oxo-3,5,7,8-tetrahydro-4H-thiopyrano[4,3-d]pyrimidin-2-yl)phenyl)boronic acid]	2000 nM	2000 nM	2.568 N/mm^2	3.906 N/mm^2	10.226 N/mm^2	5.738 N/mm^2	5.609 N/mm^2	7 of 8	37.628 N/mm	39.593 N/mm and 27.299 N/mm and 33.002 N/mm and 50.617 N/mm	3084.657 N*mm	2356.435 N*mm	1240.242 N*mm	1885.046 N*mm	2141.595 N*mm	–	–	–	–	–
O=c1[nH]c(-c2ccc(-c3ccc(Br)nc3)cc2)nc2c1CSCC2 [Compound 7, 2-(4-(6-bromopyridin-3-yl)phenyl)-3,5,7,8-tetrahydro-4H-thiopyrano [4,3-d]pyrimidin-4-one]	17 nM	5 to 10 nM	–	–	–	–	–	–	–	–	–	–	–	–	–	–	–	–	–	–
CC(C)(OCCO)c1ccc(-c2nc3c(c(=O)[nH]2)CSCC3)cc1 [Compound 8, 2-(4-(2-(2-hydroxyethoxy)propan-2-yl)phenyl)-3,5,7,8-tetrahydro-4H-thiopyrano[4,3-d]pyrimidin-4-one]	4.4 nM	5 to 10 nM	7.640 N/mm^2	4.427 N/mm^2	2.939 N/mm^2	6.900 N/mm^2	4.964 N/mm^2	2 of 8	40.080 N/mm	47.748 N/mm and 22.23 N/mm and 55.607 N/mm and 46.485 N/mm and 28.331 N/mm	2946.121 N*mm	5124.987 N*mm	2632.780 N*mm	2286.458 N*mm	2856.897 N*mm	2.913 N/mm^2	29%	1294.14 N*mm	–	–
O=c1[nH]c(-c2ccc(-c3ccc(B(O)O)cc3)cc2)nc2c1CSCC2 [Compound 10, (4′-(4-oxo-3,5,7,8-tetrahydro-4H-thiopyrano[4,3-d]pyrimidin-2-yl)-[1,1′-biphenyl]-4-yl)boronic acid]	5 nM	–	6.792 N/mm^2	11.592 N/mm^2	5.862 N/mm^2	5.506 N/mm^2	7.438 N/mm^2	3 of 8	53.682 N/mm	43.004 N/mm and 52.568 N/mm and 74.191 N/mm and 44.962 N/mm	3149.241 N*mm	3038.880 N*mm	2645.076 N*mm	2623.098 N*mm	2864.074 N*mm	–	41%	–	105%	91%
COC(=O)NCCOC(C)(C)c1ccc(-c2nc3c(c(=O)[nH]2)CSCC3)cc1 [Compound 18, methyl (2-((2-(4-(4-oxo-3,5,7,8-tetrahydro-4H-thiopyrano[4,3-d]pyrimidin-2-yl)phenyl)propan-2-yl)oxy)ethyl)carbamate]	6 nM	–	–	–	–	–	–	–	–	–	–	–	–	–	–	–	–	–	–	–
